# Measurements taken from the supplement of paper PMC10307832.
# Columns and labels:
# Assay in all cases: relative viability (nuclei count vs DMSO), 5 days (fraction); higher = more cells survive
# ChaGo-K-1 = system: ChaGo-K-1
# Method in brief: (§1)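 Lung cancer cell lines in 1536-well plates were dosed by pin tool the day after seeding, either with one drug alone or with a fixed anchor-drug dose plus five library-drug doses (not always all listed) in √10 steps. After 5 days, cells were fixed and their nuclei stained in one step (final 0.05% Triton X-100, 1% formaldehyde, 1 ug/ml Hoechst), then counted on 4× images. Relative viability is the nuclei count in treated wells divided by that in vehicle wells. Values are medians of duplicate plates.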
# EKVX = system: EKVX
# Method in brief: as §1
# EMC-BAC-2 = system: EMC-BAC-2
# Method in brief: as §1
# EPLC-272H = system: EPLC-272H
# Method in brief: as §1
# HCC-78 = system: HCC-78
# Method in brief: as §1
# HCC-827 = system: HCC-827
# Method in brief: as §1
# LCLC-103H = system: LCLC-103H
# Method in brief: as §1
# LK-2 = system: LK-2
# Method in brief: as §1
# LU99A = system: LU99A
# Method in brief: as §1
# LXF-289 = system: LXF-289
# Method in brief: as §1
# NCI-H1666 = system: NCI-H1666
# Method in brief: as §1
# NCI-H1975 = system: NCI-H1975
# Method in brief: as §1
# NCI-H2126 = system: NCI-H2126
# Method in brief: as §1
# NCI-H2342 = system: NCI-H2342
# Method in brief: as §1
# NCI-H23 = system: NCI-H23
# Method in brief: as §1
# NCI-H2405 = system: NCI-H2405
# Method in brief: as §1
# NCI-H322M = system: NCI-H322M
# Method in brief: as §1
# PC-14 = system: PC-14
# Method in brief: as §1
# RERF-LC-KJ = system: RERF-LC-KJ
# Method in brief: as §1
# SK-LU-1 = system: SK-LU-1
# Method in brief: as §1
# SW 1573 = system: SW 1573
# Method in brief: as §1
# SW 900 = system: SW 900
# Method in brief: as §1
structure (smiles),measurement,setting,value
COc1nc(C)cnc1NS(=O)(=O)c1cccnc1-c1ccc(-c2nnco2)cc1 [Zibotentan] + O=C(c1cc(Cc2n[nH]c(=O)c3ccccc23)ccc1F)N1CCN(C(=O)C2CC2)CC1 [Olaparib] (partner 8 µM),relative viability,ChaGo-K-1; first compound 0.08 µM,0.393
same,relative viability,ChaGo-K-1; first compound 0.253 µM,0.396
same,relative viability,ChaGo-K-1; first compound 0.8 µM,0.322
same,relative viability,ChaGo-K-1; first compound 2.53 µM,0.393
same,relative viability,EKVX; first compound 0.08 µM,0.909
same,relative viability,EKVX; first compound 0.253 µM,0.733
same,relative viability,EKVX; first compound 0.8 µM,0.799
same,relative viability,EKVX; first compound 2.53 µM,0.917
same,relative viability,EMC-BAC-2; first compound 0.08 µM,0.519
same,relative viability,EMC-BAC-2; first compound 0.8 µM,0.562
same,relative viability,EMC-BAC-2; first compound 2.53 µM,0.461
same,relative viability,EPLC-272H; first compound 0.253 µM,0.732
same,relative viability,EPLC-272H; first compound 0.8 µM,0.991
same,relative viability,EPLC-272H; first compound 2.53 µM,0.754
same,relative viability,HCC-78; first compound 0.08 µM,0.949
same,relative viability,HCC-78; first compound 0.253 µM,0.748
same,relative viability,HCC-78; first compound 0.8 µM,0.719
same,relative viability,HCC-78; first compound 2.53 µM,0.736
same,relative viability,HCC-827; first compound 0.08 µM,0.64
same,relative viability,HCC-827; first compound 0.253 µM,0.647
same,relative viability,HCC-827; first compound 0.8 µM,0.667
same,relative viability,HCC-827; first compound 2.53 µM,0.669
same,relative viability,LCLC-103H; first compound 0.08 µM,0.738
same,relative viability,LCLC-103H; first compound 0.253 µM,0.74
same,relative viability,LCLC-103H; first compound 0.8 µM,0.696
same,relative viability,LCLC-103H; first compound 2.53 µM,0.751
same,relative viability,LK-2; first compound 0.08 µM,0.945
same,relative viability,LK-2; first compound 0.253 µM,0.521
same,relative viability,LK-2; first compound 0.8 µM,0.75
same,relative viability,LK-2; first compound 2.53 µM,0.718
same,relative viability,LU99A; first compound 0.08 µM,0.269
same,relative viability,LU99A; first compound 0.253 µM,0.259
same,relative viability,LU99A; first compound 0.8 µM,0.181
same,relative viability,LU99A; first compound 2.53 µM,0.255
same,relative viability,LXF-289; first compound 0.08 µM,1.01
same,relative viability,LXF-289; first compound 0.253 µM,1
same,relative viability,LXF-289; first compound 0.8 µM,1.14
same,relative viability,LXF-289; first compound 2.53 µM,1.09
same,relative viability,NCI-H1666; first compound 0.08 µM,0.753
same,relative viability,NCI-H1666; first compound 0.253 µM,0.726
same,relative viability,NCI-H1666; first compound 0.8 µM,0.765
same,relative viability,NCI-H1666; first compound 2.53 µM,0.728
same,relative viability,NCI-H1975; first compound 0.08 µM,0.855
same,relative viability,NCI-H1975; first compound 0.253 µM,0.742
same,relative viability,NCI-H1975; first compound 0.8 µM,0.749
same,relative viability,NCI-H1975; first compound 2.53 µM,0.765
same,relative viability,NCI-H2126; first compound 0.08 µM,0.945
same,relative viability,NCI-H2126; first compound 0.253 µM,0.942
same,relative viability,NCI-H2126; first compound 0.8 µM,0.89
same,relative viability,NCI-H2126; first compound 2.53 µM,0.951
same,relative viability,NCI-H2342; first compound 0.08 µM,0.407
same,relative viability,NCI-H2342; first compound 0.253 µM,0.44
same,relative viability,NCI-H2342; first compound 0.8 µM,0.504
same,relative viability,NCI-H2342; first compound 2.53 µM,0.389
same,relative viability,NCI-H23; first compound 0.08 µM,0.266
same,relative viability,NCI-H23; first compound 0.253 µM,0.235
same,relative viability,NCI-H23; first compound 0.8 µM,0.242
same,relative viability,NCI-H23; first compound 2.53 µM,0.251
same,relative viability,NCI-H2405; first compound 0.08 µM,0.878
same,relative viability,NCI-H2405; first compound 0.253 µM,0.843
same,relative viability,NCI-H2405; first compound 0.8 µM,0.915
same,relative viability,NCI-H2405; first compound 2.53 µM,0.892
same,relative viability,NCI-H322M; first compound 0.08 µM,0.758
same,relative viability,NCI-H322M; first compound 0.253 µM,0.659
same,relative viability,NCI-H322M; first compound 0.8 µM,0.949
same,relative viability,NCI-H322M; first compound 2.53 µM,0.727
same,relative viability,PC-14; first compound 0.08 µM,0.206
same,relative viability,PC-14; first compound 0.253 µM,0.271
same,relative viability,PC-14; first compound 0.8 µM,0.276
same,relative viability,PC-14; first compound 2.53 µM,0.315
same,relative viability,RERF-LC-KJ; first compound 0.08 µM,0.832
same,relative viability,RERF-LC-KJ; first compound 0.253 µM,0.802
same,relative viability,RERF-LC-KJ; first compound 0.8 µM,0.921
same,relative viability,RERF-LC-KJ; first compound 2.53 µM,0.894
same,relative viability,SK-LU-1; first compound 0.08 µM,0.507
same,relative viability,SK-LU-1; first compound 0.253 µM,0.477
same,relative viability,SK-LU-1; first compound 0.8 µM,0.579
same,relative viability,SK-LU-1; first compound 2.53 µM,0.615
same,relative viability,SW 1573; first compound 0.08 µM,0.557
same,relative viability,SW 1573; first compound 0.8 µM,0.544
same,relative viability,SW 1573; first compound 2.53 µM,0.459
same,relative viability,SW 900; first compound 0.08 µM,0.922
same,relative viability,SW 900; first compound 0.253 µM,0.647
same,relative viability,SW 900; first compound 0.8 µM,0.853
same,relative viability,SW 900; first compound 2.53 µM,0.81
